According to PubChem BioAssay (NCI):
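Where inhibition never reached the appropriate level, the endpoint shown equals the highest concentration tested. Otherwise, values were interpolated linearly from a five-concentration, 48-hour dose response in 96-well plates. The concentration for 50% growth inhibition is given as GI50. TGI is the concentration that stops growth completely.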

Tests used:
Assay in all cases: NCI-60 cell line screen, 48 h
OVCAR-3 ovarian = system: OVCAR-3 ovarian
SF-268 CNS = system: SF-268 CNS
MOLT-4 leukemia = system: MOLT-4 leukemia
K-562 leukemia = system: K-562 leukemia
UACC-62 melanoma = system: UACC-62 melanoma
PC-3 prostate = system: PC-3 prostate
ACHN renal = system: ACHN renal
SNB-75 CNS = system: SNB-75 CNS
RPMI-8226 leukemia = system: RPMI-8226 leukemia
NCI-H226 lung = system: NCI-H226 lung

SMILES | TGI (OVCAR-3 ovarian) [µM] | TGI (SF-268 CNS) [µM] | TGI (MOLT-4 leukemia) [µM] | TGI (K-562 leukemia) [µM] | TGI (UACC-62 melanoma) [µM] | TGI (PC-3 prostate) [µM] | TGI (ACHN renal) [µM] | TGI (SNB-75 CNS) [µM] | TGI (RPMI-8226 leukemia) [µM] | TGI (NCI-H226 lung) [µM] | GI50 (OVCAR-3 ovarian) [µM] | GI50 (SF-268 CNS) [µM] | GI50 (MOLT-4 leukemia) [µM] | GI50 (K-562 leukemia) [µM] | GI50 (UACC-62 melanoma) [µM] | GI50 (PC-3 prostate) [µM] | GI50 (ACHN renal) [µM] | GI50 (SNB-75 CNS) [µM] | GI50 (RPMI-8226 leukemia) [µM] | GI50 (NCI-H226 lung) [µM]
Cc1cc(N2CCN(C)CC2)n2nc(-c3ccc(Cl)cc3)nc2n1 | > 100 | > 100 | > 100 | > 100 | > 100 | > 100 | > 100 | > 100 | > 100 | > 100 | – | – | – | – | – | – | – | – | – | –
COc1nnc2ccc(N3CCC(c4ccc(OCCN5CCN(C)C(=O)[C@H]5C)cc4)CC3)nn12 | 53.1 | > 100 | > 100 | > 100 | > 56.9 | > 100 | > 100 | 73.7 | 54 | > 67.7 | 0.0975 | 1.69 | 0.328 | 0.0755 | < 0.0153 | 0.315 | 0.172 | 0.0144 | 0.0229 | 2.3
CN(CC(=O)N(Cc1ccc(C2CCCCC2)cc1)c1ccc(C(=O)O)cc1)S(=O)(=O)c1c(F)c(F)c(F)c(F)c1F | 3.19 | 3.59 | 6.14 | 5.81 | 3.46 | 3.96 | 3.15 | 2.96 | 7.4 | 5.51 | 1.79 | 1.85 | 2.42 | 1.93 | 1.92 | 2.08 | 1.74 | 1.61 | 2.85 | 2.49
CC[n+]1c(/C=C/C=C2\N(C)c3ccccc3C2(C)C)sc2ccccc21 | 7.52 | 8.92 | 11.6 | 9.43 | 8.32 | 11.3 | 8.21 | 7.5 | 10.1 | 12.2 | 3.97 | 4.43 | 4.44 | 4.34 | 4.03 | 4.29 | 4.1 | 3.7 | 2.99 | 4.55
CCOC(=O)COc1ccc2c(C)cc(=O)oc2c1 | > 100 | > 100 | > 100 | > 100 | > 100 | > 100 | > 100 | > 100 | > 100 | > 100 | – | – | – | – | – | – | – | – | – | –
c1cc2c(cn1)Nc1ccncc1S2 | > 100 | > 100 | > 100 | > 100 | > 100 | > 100 | > 100 | > 100 | > 100 | > 100 | 83 | 30.5 | 33.4 | 55.4 | 41.9 | 41.7 | 26.8 | 43.9 | 36.3 | 49.2
CC1=C(C(=O)Nc2ccc(Cl)c(C(=O)OC(C)C)c2)SCCO1 | > 100 | > 89.9 | 84.4 | > 90.2 | 93.2 | > 100 | > 100 | > 100 | 67.7 | > 77.4 | – | – | – | – | – | – | – | – | – | –
